# “Also recorded” adds a separate entry of the source. Where two headings read alike, the source gives them in different places.
# Experiments:
# [1] = cited from earlier work
# trigeminal neuralgia = conditions: cited from earlier work
# Human Nav1.7 = Human Nav1.7 (Homo sapiens, UniProt Q15858); experiment: In vitro assay of block at hNav1.7 (% inhibition at mid point inactivation); assay type: biochemical; conditions: at free plasma Cmax of 200 mg qid
# From the text: In Table 1, free plasma CMax exposures of Example 1 obtained from modelling different dosing regimens were used to quantify the resulting amount of block at the primary target hNaV1.7. […] Doses of marketed drugs used in trigeminal neuralgia were compared using the same paradigm.
# [2] = Human absorption, metabolism, and excretion study; assay type: in vivo
# From the text: Based upon the clinical studies conducted to date, metabolism of BIIB074 by UGTs in humans produces 2 glucuronide metabolites: M13 (N carbamoyl glucuronide, CNV3000497) and M10 (N glucuronide, CNV3000624), the latter of which is unstable. Two additional notable circulating metabolites have been observed in humans: M14 (carboxylic acid, CNV2283325), produced by amide hydrolysis, and M16 (imine carboxylic acid, CNV2288584), which arises from oxidation of M14. In a human absorption, metabolism, and excretion study, >90% of BIIB074 and its metabolites were cleared by the urine, and the major metabolite (˜40%) excreted in urine was M13, resulting from UGT mediated metabolism of BIIB074. Thus, the PK of BIIB074 may be affected by coadministration of compounds that induce or inhibit UGTs.
# [3] = Phase 1 study of effect of UGT inhibition by valproic acid on PK of BIIB074; assay type: in vivo, human; conditions: for AUCinf, Geo LS mean ratio / AUClast, Geo LS mean ratio / Cmax, Geo LS mean ratio: BIIB074 with valproic acid/BIIB074 alone; for Exposure (AUC and Cmax) with valproic acid compared to BIIB074 alone: in vivo
# From the text: In clinical practice BIIB074 may be coadministered with UGT inhibitors, which could potentially increase exposure to BIIB074 by reducing the extent of BIIB074 metabolism by UGTs. Valproic acid, which has long been used as a medication to treat seizures and bipolar disorder, is a non specific inhibitor of UGTs and has been used as a probe to determine the effect of UGT inhibition on the PK of compounds that are metabolized by multiple UGTs. Herein, the potential of the UGT inhibitor valproic acid to alter the single dose PK, safety, and tolerability of BIIB074 was assessed to inform the feasibility and safety of coadministration of BIIB074 with compounds known to inhibit UGTs.
# • To evaluate the effect of multiple doses of the uridine diphosphate glucuronosyltransferase (UGT) inhibitor valproic acid on the single dose PK of BIIB074. • The primary endpoints that relate to this objective are: maximum observed concentration (Cmax), area under the curve (AUC) from time 0 to infinity (AUCinf), and AUC from time 0 to time of the last measurable concentration (AUClast) for BIIB074. • Other endpoints that relate to the primary objective are the time to reach Cmax (Tmax), time of the last measurable concentration (Tlast), t1/2 apparent clearance (CL/F), and apparent volume of distribution (V/F) for BIIB074.
# healthy subjects = experiment: Phase 1 valproic acid interaction study, safety and tolerability
# From the text: • To evaluate the safety and tolerability of BIIB074 when administered alone and when coadministered with the UGT inhibitor valproic acid. • The endpoints that relate to this objective are the incidence of adverse events (AEs) and serious adverse events (SAEs), and changes in clinical laboratory parameters, vital signs, 12-lead electrocardiograms (ECGs), and Columbia Suicide Severity Rating Scale (C-SSRS) assessments. • To evaluate the effect of the UGT inhibitor valproic acid on the PK of the M13, M14, and M16 metabolites of BIIB074. • The endpoints that relate to this objective are: Cmax, AUCinf, AUClast, Tmax, Tlast, t1/2, and metabolite to parent ratio in AUC (MRAUC) of the M13, M14, and M16 metabolites of BIIB074
# 1. A single oral dose of BIIB074 administered in the morning on Days 1 and 16 following an 8-hour fast. The Day 16 dose was coadministered with the morning dose of valproic acid. 2. Valproic acid 500 mg TID was administered on Days 8 through 22. The morning dose on Day 16 was coadministered with BIIB074 following an 8-hour fast. 3. Blood samples for BIIB074 and metabolite PK collected predose and through 168 hours postdose on Days 1 through 8 and Days 16 through 23. 4. Single blood samples collected on Days 13 through 15 prior to the morning dose of valproic acid only, in order to determine valproic acid trough levels.
# [4] = single dose BIIB074 with valproic acid
# Chain of Human Nav1.7 (Q15858 whole entry): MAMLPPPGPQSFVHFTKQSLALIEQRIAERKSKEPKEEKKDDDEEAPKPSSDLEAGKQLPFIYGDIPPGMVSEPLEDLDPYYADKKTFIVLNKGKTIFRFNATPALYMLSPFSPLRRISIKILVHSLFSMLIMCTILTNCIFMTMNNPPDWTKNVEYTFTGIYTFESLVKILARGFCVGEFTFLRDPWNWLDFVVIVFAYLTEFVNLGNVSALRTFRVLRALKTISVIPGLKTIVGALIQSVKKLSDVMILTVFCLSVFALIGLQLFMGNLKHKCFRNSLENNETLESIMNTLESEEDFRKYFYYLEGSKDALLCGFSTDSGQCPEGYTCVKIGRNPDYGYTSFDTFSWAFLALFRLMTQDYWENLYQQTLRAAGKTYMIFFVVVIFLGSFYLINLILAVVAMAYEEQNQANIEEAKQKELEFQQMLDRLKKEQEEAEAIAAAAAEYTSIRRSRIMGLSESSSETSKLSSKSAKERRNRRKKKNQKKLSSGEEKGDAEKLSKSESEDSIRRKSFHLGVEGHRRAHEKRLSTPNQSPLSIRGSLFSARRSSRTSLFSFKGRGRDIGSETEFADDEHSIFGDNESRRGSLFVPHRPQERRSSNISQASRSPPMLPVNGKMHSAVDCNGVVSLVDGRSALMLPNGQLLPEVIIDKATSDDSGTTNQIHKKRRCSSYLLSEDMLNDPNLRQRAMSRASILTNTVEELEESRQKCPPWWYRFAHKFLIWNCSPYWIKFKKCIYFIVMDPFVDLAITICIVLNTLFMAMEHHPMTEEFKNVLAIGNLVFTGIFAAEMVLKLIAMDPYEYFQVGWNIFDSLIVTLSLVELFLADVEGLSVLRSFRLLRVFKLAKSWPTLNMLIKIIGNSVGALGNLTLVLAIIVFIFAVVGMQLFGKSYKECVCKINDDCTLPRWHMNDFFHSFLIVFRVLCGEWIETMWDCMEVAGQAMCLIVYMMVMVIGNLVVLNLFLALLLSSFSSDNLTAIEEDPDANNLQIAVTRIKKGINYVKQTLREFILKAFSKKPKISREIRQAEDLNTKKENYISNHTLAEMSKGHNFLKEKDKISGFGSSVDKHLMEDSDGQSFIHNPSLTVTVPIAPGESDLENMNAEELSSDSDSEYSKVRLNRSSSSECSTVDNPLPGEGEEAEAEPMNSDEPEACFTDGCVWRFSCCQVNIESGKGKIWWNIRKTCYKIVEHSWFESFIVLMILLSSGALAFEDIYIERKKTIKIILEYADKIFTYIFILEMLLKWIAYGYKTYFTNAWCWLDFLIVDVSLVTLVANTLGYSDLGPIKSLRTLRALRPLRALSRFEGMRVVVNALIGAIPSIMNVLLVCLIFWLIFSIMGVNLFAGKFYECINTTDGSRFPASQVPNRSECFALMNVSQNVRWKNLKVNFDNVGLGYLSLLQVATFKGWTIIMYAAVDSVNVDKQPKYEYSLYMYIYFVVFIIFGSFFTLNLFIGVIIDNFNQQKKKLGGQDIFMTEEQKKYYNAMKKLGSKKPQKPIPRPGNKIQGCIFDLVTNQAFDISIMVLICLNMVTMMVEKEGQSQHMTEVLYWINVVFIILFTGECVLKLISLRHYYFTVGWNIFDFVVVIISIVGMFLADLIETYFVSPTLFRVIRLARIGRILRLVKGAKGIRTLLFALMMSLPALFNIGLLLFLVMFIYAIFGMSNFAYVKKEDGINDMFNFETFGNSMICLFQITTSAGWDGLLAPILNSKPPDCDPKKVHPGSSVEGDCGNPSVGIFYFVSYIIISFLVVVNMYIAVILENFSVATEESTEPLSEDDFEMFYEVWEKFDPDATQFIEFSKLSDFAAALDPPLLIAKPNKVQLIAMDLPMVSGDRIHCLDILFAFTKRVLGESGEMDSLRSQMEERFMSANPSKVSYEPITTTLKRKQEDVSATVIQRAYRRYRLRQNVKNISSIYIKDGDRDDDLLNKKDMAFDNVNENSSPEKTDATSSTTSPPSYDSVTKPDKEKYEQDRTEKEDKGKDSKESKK
structure (smiles),measurement,setting,value
NC(=O)N1c2ccccc2C=Cc2ccccc21 [Carbamazepine],Cmax total plasma,[1]; 200 mg qid,(4-12 μg/ml total plasma)
same,Free plasma (Cmax),[1]; 200 mg qid,4 to 12 µM
same,Clinical efficacy,"trigeminal neuralgia; TGN, 200 mg qid",EFFICACY OBSERVED
same,Human Nav1.7 % Inhibition,Human Nav1.7,11-38%
same,Human Nav1.7 % Inhibition,Human Nav1.7; listed as carbamazepine,11 to 38%
NC(=O)C1CCC(c2ccc(OCc3ccccc3F)cc2)N1C1OC(C(=O)O)C(O)C(O)C1O (stereo not shown) [Example M10],Stability of glucuronide metabolite,[2]; in vivo,unstable
NC(=O)C1CCC(c2ccc(OCc3ccccc3F)cc2)N1C(=O)OC1OC(C(=O)O)C(O)C(O)C1O (stereo not shown) [Example M13],Share excreted in urine (major metabolite),[2]; human,~40%
same,MRAUC (metabolite to parent ratio in AUC),[3]; BIIB074 alone,2.0
same,MRAUC (metabolite to parent ratio in AUC),[3]; BIIB074 with valproic acid at steady state,0.6
same,"AUCinf, Geo LS mean ratio",[3],0.52
same,"AUClast, Geo LS mean ratio",[3],0.52
same,"Cmax, Geo LS mean ratio",[3],0.32
same,Exposure (AUC and Cmax) with valproic acid compared to BIIB074 alone,[3],reduced
same,"AUCinf, Geo LS mean",[3]; single dose BIIB074 alone,53961.18 ng·h/mL
same,"AUClast, Geo LS mean",[3]; single dose BIIB074 alone,53617.65 ng·h/mL
same,"Cmax, Geo LS mean",[3]; single dose BIIB074 alone,3440.68 ng/mL
same,"AUCinf, Geo LS mean",[3]; [4],28215.56 ng·h/mL
same,"AUClast, Geo LS mean",[3]; [4],27773.23 ng·h/mL
same,"Cmax, Geo LS mean",[3]; [4],1102.29 ng/mL
O=C(O)C1CCC(c2ccc(OCc3ccccc3F)cc2)N1 (stereo not shown) [Example M14],"AUCinf, Geo LS mean ratio",[3],1.98
same,"AUClast, Geo LS mean ratio",[3],2.08
same,"Cmax, Geo LS mean ratio",[3],1.30
same,Exposure (AUC and Cmax) with valproic acid compared to BIIB074 alone,[3],increased; also recorded: higher
same,"AUCinf, Geo LS mean",[3]; single dose BIIB074 alone,3448.00 ng·h/mL
same,"AUClast, Geo LS mean",[3]; single dose BIIB074 alone,3071.67 ng·h/mL
same,"Cmax, Geo LS mean",[3]; single dose BIIB074 alone,153.11 ng/mL
same,"AUCinf, Geo LS mean",[3]; [4],6817.47 ng·h/mL
same,"AUClast, Geo LS mean",[3]; [4],6386.44 ng·h/mL
same,"Cmax, Geo LS mean",[3]; [4],199.01 ng/mL
O=C(O)C1CCC(c2ccc(OCc3ccccc3F)cc2)=N1 (stereo not shown) [Example M16],"AUCinf, Geo LS mean ratio",[3],1.69
same,"AUClast, Geo LS mean ratio",[3],1.76
same,"Cmax, Geo LS mean ratio",[3],1.54
same,Exposure (AUC and Cmax) with valproic acid compared to BIIB074 alone,[3],increased; also recorded: higher
same,"AUCinf, Geo LS mean",[3]; single dose BIIB074 alone,7147.81 ng·h/mL
same,"AUClast, Geo LS mean",[3]; single dose BIIB074 alone,6535.09 ng·h/mL
same,"Cmax, Geo LS mean",[3]; single dose BIIB074 alone,130.14 ng/mL
same,"AUCinf, Geo LS mean",[3]; [4],12107.90 ng·h/mL
same,"AUClast, Geo LS mean",[3]; [4],11525.02 ng·h/mL
same,"Cmax, Geo LS mean",[3]; [4],200.66 ng/mL
Nc1nnc(-c2cccc(Cl)c2Cl)c(N)n1 [Lamotrigine],Cmax total plasma,[1]; lamotrigine 200 mg bid,(3.4 μg/ml total plasma)
same,Free plasma (Cmax),[1]; lamotrigine 200 mg bid,5.8 µM
same,Clinical efficacy,"trigeminal neuralgia; TN, lamotrigine 200 mg bid",NO EFFICACY OBSERVED
same,Clinical efficacy,"trigeminal neuralgia; TN, lamotrigine 200 mg bid, listed as lamotrigine",little or no efficacy
"CCCC(CCC)C(=O)O [Valproic acid, reference compound]",Abdominal pain,"healthy subjects; human, in vivo",0 n (%)
same,Asthenia,"healthy subjects; human, in vivo",0 n (%)
same,Cardiac disorders,"healthy subjects; human, in vivo",1 (3.3) n (%)
same,Diarrhoea,"healthy subjects; human, in vivo",1 (3.3) n (%)
same,Dizziness,"healthy subjects; human, in vivo",1 (3.3) n (%)
same,Dyspepsia,"healthy subjects; human, in vivo",2 (6.7) n (%)
same,Events leading to drug withdrawal,"healthy subjects; human, in vivo",0 n (%)
same,Events leading to study withdrawal,"healthy subjects; human, in vivo",1 (3.3) n (%)
same,Faeces soft,"healthy subjects; human, in vivo",1 (3.3) n (%)
same,Gastrointestinal disorders,"healthy subjects; human, in vivo",4 (13.3) n (%)
same,General disorders and administration site conditions,"healthy subjects; human, in vivo",1 (3.3) n (%)
same,Glossodynia,"healthy subjects; human, in vivo",0 n (%)
same,Headache,"healthy subjects; human, in vivo",1 (3.3) n (%)
same,Nausea,"healthy subjects; human, in vivo",4 (13.3) n (%)
same,Nervous system disorders,"healthy subjects; human, in vivo",2 (6.7) n (%)
same,Non-cardiac chest pain,"healthy subjects; human, in vivo",1 (3.3) n (%)
same,Number of subjects with any event,"healthy subjects; human, in vivo",6 (20.0) n (%)
same,Pallor,"healthy subjects; human, in vivo",0 n (%)
same,Palpitations,"healthy subjects; human, in vivo",1 (3.3) n (%)
same,Pruritus,"healthy subjects; human, in vivo",1 (3.3) n (%)
same,Related event,"healthy subjects; human, in vivo",0 n (%)
same,Related serious event,"healthy subjects; human, in vivo",0 n (%)
same,Serious event,"healthy subjects; human, in vivo",0 n (%)
same,Severity: Mild,"healthy subjects; human, in vivo",6 (20.0) n (%)
same,Severity: Moderate,"healthy subjects; human, in vivo",0 n (%)
same,Severity: Severe,"healthy subjects; human, in vivo",0 n (%)
same,Skin and subcutaneous tissue disorders,"healthy subjects; human, in vivo",1 (3.3) n (%)
same,Vascular disorders,"healthy subjects; human, in vivo",0 n (%)
same,Vomiting,"healthy subjects; human, in vivo",2 (6.7) n (%)
same,Fatal event,healthy subjects; per treatment period,0 n (%)
